Assay: Discoloration (degradation) of sucralose during encapsulation
Format: physicochemical
Settings: with polyvinyl acetate, 2% polyvinylpyrollidone, 1% magnesium stearate; tablets pressed at 25° C., heated to 80° C.
Protocol: As one example of a hydrophilic coating, sucralose was mixed with powdered polyvinyl acetate and 5% fat and extruded at 110° C. […] In an alternative encapsulation, sucralose was mixed with powdered polyvinyl acetate, 2% polyvinylpyrollidone and 1% magnesium stearate and pressed into tablets at 25° C. The tablets were then heated to 80° C., which softened the polymer and fused the polyvinylacetate with the sucralose. […] Thereafter, the tablets were cooled, ground and sized and analyzed. […] As another example, a polymer/sweetener matrix was prepared as described above in this paragraph. A solution of gum arabic was made and coated on the polymer/sweetener matrix particles using the method described in U.S. Pat. No. 3,196,827, the relevant portions of which are incorporated herein by reference. Coating levels were 20, 30, 40, and 50% for different samples. Chewing gums prepared with the coated polymer/sweetener matrix particles were chewed by a panel with bolus collection at 5, 10, 15, 20 minutes. Residual sucralose was analyzed in each chewed bolus.

discoloration of the sucralose: No discoloration
SMILES: OC[C@H]1O[C@H](O[C@]2(CCl)O[C@H](CCl)[C@@H](O)[C@@H]2O)[C@H](O)[C@@H](O)[C@H]1Cl [sucralose]

From patent US20090214445A1, “DELIVERY SYSTEMS FOR MANAGING RELEASE OF FUNCTIONAL INGREDIENTS IN AN EDIBLE COMPOSITION” (Cadbury Adams USA LLC, priority 2005, published 2009)
